Laboratory results taken from paper PMC11177801 (Journal of medicinal chemistry, 2015).
Like-named read-outs stand apart in the source and are kept apart here.

Columns and labels:
[1] = test system: P. falciparum chloroquine-resistant (CQR) 7G8 strain; assay: microbe, parasite or virus in culture; type: cell-based; settings: Plasmodium falciparum, 7G8, read-out: antimalarial activity (IC50 in nM) 7G8
[2] = test system: P. falciparum chloroquine-sensitive (CQS) D6 strain; assay: Malaria SYBR Green I-based Fluorescence; type: cell-based, Plasmodium falciparum
[3] = test system: P. yoelii (Kenya strain, MR4 MRA-428); assay: In vivo efficacy against murine malaria, modified 4-day test, oral gavage; settings: mice
[4] = test system: P. falciparum chloroquine-resistant (CQR) Dd2 strain; assay: microbe, parasite or virus in culture; type: cell-based; settings: Plasmodium falciparum, DD2, read-out: antimalarial activity (IC50 in nM) Dd2
[5] = test system: multidrug-resistant P. yoelii; settings: 100 mg/kg/day, oral route; cited from earlier work
[6] = HepG2 cytotoxicity assay; type: cell-based; settings: human, cytotoxicity (IC50 in nM) HepG2, HepG2 cells
[7] = Plasmodium falciparum, D6, read-out: antimalarial activity (IC50 in nM) D6

Compound	IC50 [1] [nM]	IC50 [2, 7] [nM]	IC50 [4] [nM]	other results
CCN(CC)CCCC(C)Nc1ccnc2cc(Cl)ccc12 (stereo not shown) [CQ, chloroquine]	130	13	115	% suppression of parasitaemia on day 5 ([3]; 1 mg/kg × 4 days): 65%; % suppression of parasitaemia on day 5 ([3]; 4 mg/kg × 4 days): 94%; % suppression of parasitaemia on day 5 ([3]; 16 mg/kg × 4 days): 100%; % suppression of parasitaemia on day 5 ([3]; 64 mg/kg × 4 days): 100%
CCCCCCCCCCCC1=N/C(=C\c2[nH]c(-c3ccc[nH]3)cc2OC)C=C1 [Compound 1a, undecylprodiginine, reference compound]	7	7.2	7.5	–
CCC1CCCCCCCCC2=N/C(=C\c3[nH]c(-c4ccc[nH]4)cc3OC)C1=C2 (stereo not shown) [Compound 3b, metacycloprodiginine]	–	–	–	mice cured [5]: three of four
COC1=CC(c2cccn2C)=NC1=Cc1c(Cc2ccc(Cl)cc2)cc(Cc2ccc(Cl)cc2)n1C [Compound 87, 5’-((3,5-Bis(4-chlorobenzyl)-1-methyl-pyrrol-2-yl)methylene)-4’-methoxy-1-methyl-2,2’-bipyrrole]	> 2500	> 2500	> 2500	–
O=C(CNC(=O)c1ccc[nH]1)NC12CC3CC(CC(C3)C1)C2 [Compound 190, N-(2-((Adamantan-1-yl)amino)-2-oxoethyl)-pyrrole-2-carboxamide]	> 2500	> 2500	> 2500	–
c1c[nH]c(CNCCNC23CC4CC(CC(C4)C2)C3)c1 [Compound 191, N^1-((Pyrrol-2-yl)methyl)-N^2-(adamantan-1-yl)ethane-1,2-diamine]	> 2500	> 2500	> 2500	–
O=C(C=Cc1ccc[nH]1)NCC(=O)NC12CC3CC(CC(C3)C1)C2 [Compound 194]	–	–	–	IC50 ([2]; read-out: antimalarial activity (IC50 in nM) D6): > 2500 nM
c1c[nH]c(CCCNCCNC23CC4CC(CC(C4)C2)C3)c1 [Compound 196, N^1-(3-(Pyrrol-2-yl)propyl)-N^2-(adamantan-1-yl)ethane-1,2-diamine]	> 2500	> 2500	> 2500	–
OC(c1cc(C(F)(F)F)nc2c(C(F)(F)F)cccc12)C1CCCCN1 (stereo not shown) [MQ, mefloquine]	–	–	–	IC50 [6]: 21800 nM
